In article PMC7178883, “1,2,4-Triazole-based anticonvulsant agents with additional ROS scavenging activity are effective in a model of pharmacoresistant epilepsy” (Journal of Enzyme Inhibition and Medicinal Chemistry, 2020):
Values after ≈ are worked out from the molar mass of the structure shown. Like-named read-outs stand apart in the source and are kept apart here.

Assays:
hCA I = biological target: T1, hCA I (Homo sapiens, UniProt P00915); assay: Carbonic anhydrase inhibition, stopped flow CO2 hydration; assay type: biochemical; conditions: 1 h incubation
T1 construct: made in house
Protocol: Carbonic anhydrase catalysed CO2 hydration activity was measured using an Applied Photophysics stopped-flow spectrometer. […] The uncatalyzed rates were determined in the same manner and subtracted from the total observed rates. Stock solutions of inhibitor (0.1 mM) were prepared in distilled-deionized water and dilutions up to 0.01 nM were done thereafter with the assay buffer. […] The inhibition constants were obtained by non-linear least-squares methods using PRISM 3 and the Cheng–Prusoff equation and represent the mean from at least three different determinations. All CA isoforms were recombinant ones obtained in-house[21]^,[22].

[1] = test system: generalised tonic-clonic seizures (MES test); set-up: method as in PMID 30594731, PMID 23291122, PMID 25226229, PMID 25090118; conditions: Figure 1, cited from earlier work; for ED50: MES test
CUPRAC assay = conditions: pH 7.0, 450 nm
Protocol: Cupric reducing antioxidant capacity (CUPRAC) assay was performed according to the method by Apak et al.[20] with slight modifications. The CUPRAC reagent was prepared by mixing equal volume of CuCl2 (10 mM), neocuproine solution (7.5 mM), and acetate buffer (pH = 7.0). Subsequently, 50 µl of TP-10, TP-315, TP-427 (0.002–0.4 mg/ml) and 150 µl of CUPRAC reagent were pipetted into each well of 96-well plate (Nunc, Roskilde, Denmark). After pipetting, the plate was shaken for 5 min and then incubated for 25 min in the dark at room temperature. The absorbance of the solutions was read at 450 nm using a microplate reader (Epoch, BioTek Instruments, Inc., Winooski, VT, USA). At least six tests were performed for each concentration of the investigated compounds. The results were expressed as the IC50 (µg/ml) ± SD.

DPPH assay = conditions: methanol, 30 min, 517 nm
Protocol: Free radical scavenging activity of compounds TP-10, TP-315 and TP-427 was evaluated using DPPH assay. Briefly, 25 µl of 0.2 mM of methanolic solution of DPPH ([…]) was mixed with 175 µl of varying concentrations (0.002–4.5 mg/ml) of the studied compounds dissolved in methanol. Reaction mixtures in the 96-well plate were incubated in the dark at room temperature for 30 min. The absorbance was measured at 517 nm against blank (which consists of all reagents without the investigated compounds) using a microplate reader (Epoch, BioTek Instruments, Inc., Winooski, VT, USA). As a reference, the antioxidant activity of vitamin C was evaluated. Each concentration of the compounds was assayed at least six times. The results were expressed as the IC50 (µg/ml) ± SD calculated using the linear regression analysis.

HEK-293 = test system: HEK-293; set-up: method as in PMID 30594731, PMID 28824309; conditions: 10 µg/ml; cited from earlier work
HepG2 = test system: HepG2; set-up: method as in PMID 30594731, PMID 28824309; conditions: 10 µg/ml; cited from earlier work
motor coordination = conditions: cited from earlier work; for TD50 ± SEM: chimney test

T1 sequence (P00915 whole entry): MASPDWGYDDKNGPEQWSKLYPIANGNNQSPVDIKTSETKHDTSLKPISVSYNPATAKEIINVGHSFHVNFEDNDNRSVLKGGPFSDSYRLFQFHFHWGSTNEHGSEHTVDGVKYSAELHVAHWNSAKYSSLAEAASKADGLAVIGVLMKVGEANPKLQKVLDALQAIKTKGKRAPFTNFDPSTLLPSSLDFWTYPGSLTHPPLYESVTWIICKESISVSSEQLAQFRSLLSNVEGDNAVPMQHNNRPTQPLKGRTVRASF

Structure (SMILES) | Ki (hCA I) [nM] | interaction with VPA [1] | ED50 [1] [mg/kg] | IC50 ± SD, CUPRAC (CUPRAC assay) [µg/mL] | IC50 ± SD, DPPH (DPPH assay) [µg/mL] | toxicity for HEK-293 cells (HEK-293) | toxicity for HepG2 cells (HepG2) | TD50 (motor coordination; Figure 1, pretreatment time not given) [mg/kg] | TD50 ± SEM (motor coordination; pretreatment time 15 min) [mg/kg] | TD50 ± SEM (motor coordination; pretreatment time 30 min) [mg/kg]
Cc1ccc(-n2c(-c3cccc(Cl)c3)n[nH]c2=S)cc1 [TP-10, 5-(3-chlorophenyl)-4-(4-methylphenyl)-2,4-dihydro-3H-1,2,4-triazole-3-thione] | 2190 | synergism with VPA | 57.0 | 16.04 ± 0.61 (≈ 53.1 µM) | 31.72 ± 1.05 (≈ 105 µM) |  |  |  |  | 
CCCCCCn1c(-c2cccc(Cl)c2)n[nH]c1=S [TP-315, 5-(3-chlorophenyl)-4-hexyl-2,4-dihydro-3H-1,2,4-triazole-3-thione] |  |  | 47.6 | 22.28 ± 1.03 (≈ 75.3 µM) | 56.87 ± 0.70 (≈ 192 µM) | non-toxic | non-toxic |  |  | 
CCCCCCn1c(Cc2cccc(Cl)c2)n[nH]c1=S [TP-427, 5-(3-chlorobenzyl)-4-hexyl-2,4-dihydro-3H-1,2,4-triazole-3-thione] | > 100000 | synergism with VPA | 72.1 | 30.92 ± 1.11 (≈ 99.8 µM) | 110.51 ± 2.12 (≈ 357 µM) | non-toxic | non-toxic | > 1000 | >1000 | >1000
